According to patent publication US20240270762A1, “PENICILLIN-BINDING PROTEIN INHIBITORS” (priority 2021, published 2024):
Values after ≈ are worked out from the molar mass of the structure shown.

How the values were obtained:
N. gonorrhoeae FA1090 = test: Liquid broth MIC in Fastidious broth; settings: Neisseria gonorrhoeae, FA1090, read-out: Minimum Inhibitory Concentration (MIC), N. gonorrhoeae FA 1090
Description: Additional antibacterial testing of the series was performed in 8 reference strains of N. gonorrhoeae (ATCC 49226, FA1090, MS 11, WHO G, WHO L, WHO M, WHO K, WHO X, WHO Z, WHO Q, CDC-0197). ATCC 49226, FA1090, MS11, WHO G, WHO L, and WHO M produce wild type or wild-type like PBP2. WHO K, WHO X, WHO Z, WHO Q, and CDC-0197 produce mosaic PBP2. Liquid broth-based assays were used for antibacterial testing of PBP inhibitors in Neisseria gonorrhoeae. Briefly, cryo-preserved bacterial cultures of clinical strains were streaked for isolation on Chocolate Agar (72 g/L (2×) GC Agar Base (BD #228950) and 2% (2×) Hemoglobin was autoclaved at 121° C. for 20 minutes to sterilize. Once cooled to ˜50° C. the 2×GC Agar Base and 2× Hemoglobin solutions are combined and 1% IsoVitaleX Enrichment (BD #211876) was added to the solution). Strains were incubated at 36° C. and 5% CO2 to allow growth of colonies, 24 hours before inoculum preparation. 2-fold serial dilutions of test compounds were conducted in a 96 well plate with a final volume of 75 μL per well at 2-fold the final desired concentration in Fastidious broth (Remel #R07664). For preparation of assay inoculum, a direct suspension was prepared by aseptically swabbing 10-15 colonies from agar plates into culture tubes containing 2 mL of fresh sterile saline. After the dilution plates were set up, direct suspensions were then diluted in a cuvette containing sterile saline and the optical density was measured at 600 nm. Inocula were diluted such that 75 μL of this culture in Fastidious broth results in a starting bacterial concentration of 5×10^5 CFU/mL when added to the dilution plates. The plates were incubated for ˜24 hours at 36° C. and 5% CO2.

P. aeruginosa ATCC 35151 = test: microbe, parasite or virus in culture; assay type: cell-based; settings: Pseudomonas aeruginosa, ATCC35151, read-out: MIC P. aeruginosa ATCC 35151
K. pneumoniae UMM = test: microbe, parasite or virus in culture; assay type: cell-based; settings: Klebsiella pneumoniae, read-out: MIC K. pneumoniae UMM
E. coli 901C = test: microbe, parasite or virus in culture; assay type: cell-based; settings: Escherichia coli, read-out: MIC E. coli 901C
P. aeruginosa ATCC 27853 = test: microbe, parasite or virus in culture; assay type: cell-based; settings: Pseudomonas aeruginosa, ATCC27853, read-out: MIC P. aeruginosa ATCC 27853
N. gonorrhoeae WHO K = test: Liquid broth MIC in Fastidious broth; settings: Neisseria gonorrhoeae, read-out: Minimum Inhibitory Concentration (MIC), N. gonorrhoeae WHO K
N. gonorrhoeae WHO Q = test: Liquid broth MIC in Fastidious broth; settings: Neisseria gonorrhoeae, read-out: Minimum Inhibitory Concentration (MIC), N. gonorrhoeae WHO Q
E. coli AG100A = test: Broth microdilution MIC in CAMHB; assay type: cell-based; settings: Escherichia coli, read-out: MIC E. coli AG100A
K. pneumoniae 848844 = test: microbe, parasite or virus in culture; assay type: cell-based; settings: Klebsiella pneumoniae, 848844, read-out: MIC K. pneumoniae 848844
K. pneumoniae SI-117 = test: microbe, parasite or virus in culture; assay type: cell-based; settings: Klebsiella pneumoniae, SI117, read-out: MIC K. pneumoniae SI-117
[1] = tested on: N. gonorrhoeae ATCC 49226; test: Liquid broth MIC in Fastidious broth; settings: Neisseria gonorrhoeae, ATCC49226, read-out: Minimum Inhibitory Concentration (MIC), N. gonorrhoeae ATCC 49226
A. baumannii ATCC 19606 = test: microbe, parasite or virus in culture; assay type: cell-based; settings: Acinetobacter baumannii, ATCC19606, read-out: MIC, A. baumannii ATCC 19606
[2] = molecular target: T1, PBP3 from Pseudomonas aeruginosa (PAO1) (Pseudomonas aeruginosa, UniProt G3XD46); test: Bocillin-FL fluorescence polarization competition binding, P. aeruginosa PBP3; settings: Binding affinity to P. aeruginosa PBP3; fluorescence polarization competition binding assay using Bocillin-FL; read-out: P. aeruginosa PBP3 Potency
T1 construct: made in house
In short: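 Purified PBPs pre-incubated with inhibitor (E. coli PBP3 1.5 μM, 30 min; P. aeruginosa PBP3 0.75 μM, A. baumannii PBP1a 1 μM and PBP3 0.2 μM, 15 min), then Bocillin-FL 0.1 μM (0.05 μM for PBP1a) added; FP read up to 60 min. EC50 = concentration halving bound Bocillin-FL.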

N. gonorrhoeae CDC-0197 = test: Liquid broth MIC in Fastidious broth; settings: Neisseria gonorrhoeae, CDC0197, read-out: Minimum Inhibitory Concentration (MIC), N. gonorrhoeae CDC-0197
N. gonorrhoeae WHO L = test: Liquid broth MIC in Fastidious broth; settings: Neisseria gonorrhoeae, read-out: Minimum Inhibitory Concentration (MIC), N. gonorrhoeae WHO L
E. coli ATCC 25922 = test: microbe, parasite or virus in culture; assay type: cell-based; settings: Escherichia coli, ATCC25922, read-out: MIC E. coli 25922

T1 sequence (G3XD46 whole entry): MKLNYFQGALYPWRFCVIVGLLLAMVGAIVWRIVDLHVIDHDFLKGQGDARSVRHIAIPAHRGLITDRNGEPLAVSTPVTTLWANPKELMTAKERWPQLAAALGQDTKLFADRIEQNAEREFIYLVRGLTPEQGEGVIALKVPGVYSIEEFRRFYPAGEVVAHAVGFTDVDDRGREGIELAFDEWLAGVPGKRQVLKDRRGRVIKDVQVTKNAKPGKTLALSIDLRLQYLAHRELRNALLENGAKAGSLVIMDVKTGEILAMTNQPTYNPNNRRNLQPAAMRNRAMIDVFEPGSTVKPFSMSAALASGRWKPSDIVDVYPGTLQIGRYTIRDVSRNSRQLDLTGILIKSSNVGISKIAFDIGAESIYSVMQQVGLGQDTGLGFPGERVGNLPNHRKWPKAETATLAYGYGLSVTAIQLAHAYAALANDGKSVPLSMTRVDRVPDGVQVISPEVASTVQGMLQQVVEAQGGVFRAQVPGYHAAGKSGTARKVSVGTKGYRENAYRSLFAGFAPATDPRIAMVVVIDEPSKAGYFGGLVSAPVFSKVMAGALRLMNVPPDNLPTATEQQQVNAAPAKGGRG

Row | SMILES | MIC (N. gonorrhoeae FA1090) [µg/mL] | MIC (P. aeruginosa ATCC 35151) [µg/mL] | MIC (K. pneumoniae UMM) [µg/mL] | MIC (E. coli 901C) [µg/mL] | MIC (P. aeruginosa ATCC 27853) [µg/mL] | MIC (N. gonorrhoeae WHO K) [µg/mL] | MIC (N. gonorrhoeae WHO Q) [µg/mL] | MIC (E. coli AG100A) [µg/mL] | MIC (K. pneumoniae 848844) [µg/mL] | MIC (K. pneumoniae SI-117) [µg/mL] | MIC [1] [µg/mL] | MIC (A. baumannii ATCC 19606) [µg/mL] | IC50 [2] [µM] | MIC (N. gonorrhoeae CDC-0197) [µg/mL] | MIC (N. gonorrhoeae WHO L) [µg/mL] | MIC (E. coli ATCC 25922) [µg/mL]
1 | CN1CCC[C@@H]1C(=O)N[C@@H](C(=O)N[C@H]1Cc2cccc(C(=O)O)c2OB1O)c1ccc(P(=O)(O)O)cc1 (racemic) [Example 54, (R)-2-hydroxy-3-((S)-2-((R)-1-methylpyrrolidine-2-carboxamido)-2-(4-phosphonophenyl)acetamido)-3,4-dihydro-2H-benzo[e][1,2]oxaborinine-8-carboxylic acid and (R)-2-hydroxy-3-((R)-2-((R)-1-methylpyrrolidine-2-carboxamido)-2-(4-phosphonophenyl)acetamido)-3,4-dihydro-2H-benzo[e][1,2]oxaborinine-8-carboxylic acid] | 4 to 8 (≈ 7.53 to 15.1 µM) | 32 to 64 (≈ 60.2 to 120 µM) | > 128 | 32 to 64 (≈ 60.2 to 120 µM) | > 128 | 16 to 32 (≈ 30.1 to 60.2 µM) | 16 to 32 (≈ 30.1 to 60.2 µM) | > 128 | > 128 | > 128 | 16 to 32 (≈ 30.1 to 60.2 µM) | > 128 | 50 to 250 | 4 to 8 (≈ 7.53 to 15.1 µM) | 16 to 32 (≈ 30.1 to 60.2 µM) | > 128
2 | CCN1CCN(C(=O)N[C@H](C(=O)N[C@H]2Cc3ccc(F)c(C(=O)O)c3OB2O)c2ccc(P(=O)(O)O)cc2)C(=O)C1=O (single isomer, unassigned) [Example 9] | < 1 | 8 to 16 (≈ 13.2 to 26.4 µM) | > 128 | 2 to 4 (≈ 3.3 to 6.6 µM) | > 128 | 1 to 2 (≈ 1.65 to 3.3 µM) | 1 to 2 (≈ 1.65 to 3.3 µM) | > 128 | > 128 | > 128 | 1 to 2 (≈ 1.65 to 3.3 µM) | > 128 | 10 to 50 | < 1 | 4 to 8 (≈ 6.6 to 13.2 µM) | > 128
3 | CCN1CCN(C(=O)N[C@@H](C(=O)N[C@H]2Cc3ccc(F)c(C(=O)O)c3OB2O)c2ccc(P(=O)(O)O)cc2)C(=O)C1=O (single isomer, unassigned) [Example 10] | < 1 | < 1 | > 128 | < 1 | 32 to 64 (≈ 52.8 to 106 µM) | < 1 | < 1 | 32 to 64 (≈ 52.8 to 106 µM) | > 128 | > 128 | < 1 | 32 to 64 (≈ 52.8 to 106 µM) | < 10 | < 1 | < 1 | > 128
4 | CS(=O)(=O)N1CCN(C(=O)N[C@@H](C(=O)N[C@H]2Cc3cccc(C(=O)O)c3OB2O)c2ccc(P(=O)(O)O)c(F)c2F)C1=O (single isomer, unassigned) [Example 13] | < 1 | 2 to 4 (≈ 3.09 to 6.19 µM) | > 128 | < 1 | > 128 | < 1 | < 1 | 8 to 16 (≈ 12.4 to 24.8 µM) | > 128 | > 128 | < 1 | 32 to 64 (≈ 49.5 to 99 µM) | < 10 | < 1 | < 1 | > 128
5 | CS(=O)(=O)N1CCN(C(=O)N[C@@H](C(=O)N[C@H]2Cc3cccc(C(=O)O)c3OB2O)c2ccc(P(=O)(O)O)c(F)c2)C1=O (single isomer, unassigned) [Example 15] | < 1 | 2 to 4 (≈ 3.18 to 6.37 µM) | > 128 | < 1 | > 128 | < 1 | < 1 | 8 to 16 (≈ 12.7 to 25.5 µM) | > 128 | > 128 | < 1 | 32 to 64 (≈ 50.9 to 102 µM) | < 10 | < 1 | < 1 | 32 to 64 (≈ 50.9 to 102 µM)
6 | CS(=O)(=O)N1CCN(C(=O)N[C@@H](C(=O)N[C@H]2Cc3cccc(C(=O)O)c3OB2O)c2cc(F)c(P(=O)(O)O)c(F)c2)C1=O (single isomer, unassigned) [Example 18] | < 1 | 2 to 4 (≈ 3.09 to 6.19 µM) | 32 to 64 (≈ 49.5 to 99 µM) | < 1 | > 128 | < 1 | < 1 | 8 to 16 (≈ 12.4 to 24.8 µM) | > 128 | > 128 | < 1 | 32 to 64 (≈ 49.5 to 99 µM) | < 10 | < 1 | < 1 | 32 to 64 (≈ 49.5 to 99 µM)
7 | CS(=O)(=O)N1CCN(C(=O)N[C@@H](C(=O)N[C@H]2Cc3ccc(F)c(C(=O)O)c3OB2O)c2ccc(P(=O)(O)O)c(F)c2)C1=O (single isomer, unassigned) [Example 19] | < 1 | 2 to 4 (≈ 3.09 to 6.19 µM) | > 128 | < 1 | > 128 | < 1 | < 1 | 32 to 64 (≈ 49.5 to 99 µM) | > 128 | > 128 | < 1 | > 128 | < 10 | < 1 | < 1 | > 128
8 | CCN1CCN(C(=O)N[C@@H](C(=O)N[C@H]2Cc3cccc(C(=O)O)c3OB2O)c2ccc(P(C)(=O)O)cc2)C(=O)C1=O (single isomer, unassigned) [Example 47] | < 1 | < 1 | > 128 | < 1 | > 128 | 4 to 8 (≈ 6.82 to 13.6 µM) | 1 to 2 (≈ 1.71 to 3.41 µM) | 8 to 16 (≈ 13.6 to 27.3 µM) | > 128 | > 128 | < 1 | 32 to 64 (≈ 54.6 to 109 µM) | < 10 | 1 to 2 (≈ 1.71 to 3.41 µM) | 4 to 8 (≈ 6.82 to 13.6 µM) | 8 to 16 (≈ 13.6 to 27.3 µM)
9 | N[C@@H](C(=O)N[C@H]1Cc2cccc(C(=O)O)c2OB1O)c1ccc(P(=O)(O)O)cc1 (single isomer, unassigned) [Example 171] | > 64 | > 128 | > 128 | > 128 | > 128 | > 64 | > 64 | > 128 | > 128 | > 128 | > 64 | > 128 | > 250 | > 64 | > 64 | > 128
